This is an account of results in patent US20230339970A1, “CASEIN KINASE 1 DELTA MODULATORS” (priority 2020, published 2023).

In one test the target is T1, human CSNK1D (Homo sapiens, UniProt P48730).
T1 construct: expressed in transfected cells
Kind of test: Whole Cell nBRET CSNK1D Binding Assay. As to conditions: living CHO cells stably expressing human CSNK1D tagged with nanoluciferase; NanoBret tracer 130 nM; 2 hours at 37 C.

Test [1] has as its target T2, human recombinant GST cleaved CSNK1D (Homo sapiens, UniProt P48730).
T2 construct: GST (cleaved yes); purchased University of Dundee clone DU 19064
Kind of test: Purified Enzyme Assay (ADP-Glo CSNK1D Kinase Assay). It is filed as biochemical. Conditions: 2 nM CSNK1D; peptide substrate 150 μM; ATP 20 μM; 45 minutes at room temperature. Here is the method: In this assay, CSNK1D phosphorylates a substrate peptide PLSRTL-pS-VASLPGL in the presence of ATP. […] This assay monitors CSNK1D kinase activity by measuring the amount of ADP produced in the assay.
The substrate mix is added to each well of a low volume, 384-well, white opaque plate. Test compounds were diluted in HBSS and added in a dose-response to the plate.
The total volume of each reaction is 5 ul (2 μL of substrate mix, 1 μL of diluted compounds, and 2 μL of human recombinant CSNK1D). The plates are incubated for 45 minutes at room temperature.
ADP was quantified using the ADP-Glo™ Kinase Assay. ADP-Glo Reagent (5 μL) was added to each well. After a 1 hour incubation at room temperature, Kinase Detection Reagent (10 μL) was added to each well and incubated for 30 minutes. […] The raw data from the Envision is used to calculate percent activity.
In general terms: In ADP-Glo the light output rises with the ADP produced.

T1 sequence (P48730 whole entry): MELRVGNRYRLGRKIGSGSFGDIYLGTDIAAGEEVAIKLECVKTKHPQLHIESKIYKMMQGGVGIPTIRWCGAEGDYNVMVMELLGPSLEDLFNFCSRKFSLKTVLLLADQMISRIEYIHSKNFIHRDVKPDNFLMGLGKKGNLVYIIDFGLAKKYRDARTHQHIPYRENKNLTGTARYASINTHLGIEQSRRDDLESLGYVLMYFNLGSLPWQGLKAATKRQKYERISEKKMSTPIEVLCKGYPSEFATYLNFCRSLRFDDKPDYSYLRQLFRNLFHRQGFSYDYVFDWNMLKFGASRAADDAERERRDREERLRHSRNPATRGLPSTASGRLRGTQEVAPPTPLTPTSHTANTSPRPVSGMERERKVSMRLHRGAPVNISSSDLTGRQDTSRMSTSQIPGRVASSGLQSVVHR
T2 sequence (P48730 whole entry): as above

In the case of `Fc1ccc(-c2nn3c(c2-c2ccnc4[nH]ncc24)OCC2(CC2)C3)nc1` [Example 460, 2′-(5-Fluoropyridin-2-yl)-3′-(1H-pyrazolo[3,4-b]pyridin-4-yl)-5′H,7′H-spiro[cyclopropane-1,6′-pyrazolo[5,1-b][1,3]oxazine]], the IC50 (as a rule, the concentration that gives 50% inhibition) at human CSNK1D was determined as 0.024 µM; in test [1], 0.002 µM.

Turning to `Fc1ccc(-c2nn3c(c2-c2cc(C(F)F)nc4[nH]ncc24)CCC3)nc1` [Example 222, 6-(Difluoromethyl)-4-[2-(5-fluoro-2-pyridyl)-5,6-dihydro-4H-pyrrolo[1,2-b]pyrazol-3-yl]-1H-pyrazolo[3,4-b]pyridine], the results for the IC50 (on human CSNK1D; in test [1]) were 0.181 µM and 0.011 µM, respectively.

Consider `[2H]C([2H])([2H])C1(C([2H])([2H])[2H])Cn2nc(-c3ccc(F)cn3)c(-c3ccnc(NC(=O)CC)c3)c2CO1` [Example 395, N-(4-(2-(5-Fluoropyridin-2-yl)-6,6-bis(methyl-d3)-6,7-dihydro-4H-pyrazolo[5,1-c][1,4]oxazin-3-yl)pyridin-2-yl)propionamide], for which the IC50 on human CSNK1D came out at 0.021 µM; in test [1], 0.002 µM.

Regarding `[2H]C([2H])([2H])C1(C([2H])([2H])[2H])Cn2nc(-c3ccc(F)cn3)c(-c3ccnc4[nH]nc(Cl)c34)c2CO1` [Example 400, 3-(3-Chloro-1H-pyrazolo[3,4-b]pyridin-4-yl)-2-(5-fluoropyridin-2-yl)-6,6-bis(methyl-d3)-6,7-dihydro-4H-pyrazolo[5,1-c][1,4]oxazine], the IC50 on human CSNK1D was 0.03 µM; in test [1] it was 0.004 µM.

Regarding `Fc1ccc(-c2nn3c(c2-c2ccnc4[nH]ncc24)CCC2(C3)CC2(F)F)cc1` (single isomer, unassigned) [Example 326, (*S)-2,2-Difluoro-2′-(4-fluorophenyl)-3′-1H-pyrazolo[3,4-b]pyridin-4-yl)-4′,5′-dihydro-7′H-spiro[cyclopropane-1,6′-pyrazolo[1,5-a]pyridine]], the IC50 at human CSNK1D worked out at 0.023 µM; in test [1], 0.006 µM.

As to `Cc1cc(-c2c(-c3ccc(F)cn3)nn3c2COCC3(C)C)c2cn[nH]c2n1` [Example 123, 2-(5-Fluoro-2-pyridyl)-7,7-dimethyl-3-(6-methyl-1H-pyrazolo[3,4-b]pyridin-4-yl)-4,6-dihydropyrazolo[5,1-c][1,4]oxazine], the IC50 came to 2.35 µM at human CSNK1D and 0.111 µM in test [1].

With `CC1(C)Cn2nc(-c3ccc(F)cn3)c(-c3ccn4nccc4n3)c2CO1` [Example 387, 2-(5-Fluoropyridin-2-yl)-6,6-dimethyl-3-(pyrazolo[1,5-a]pyrimidin-5-yl)-6,7-dihydro-4H-pyrazolo[5,1-c][1,4]oxazine], the results for the 50% inhibitory concentration (IC50) (on human CSNK1D; in test [1]) were 0.76 µM and 0.03 µM, respectively.

Turning to `CC1(C)CCc2c(-c3ccnc4[nH]ncc34)c(-c3ccc(F)cn3)nn2C1` [Example 49, 4-[2-(5-Fluoro-2-pyridyl)-6,6-dimethyl-5,7-dihydro-4H-pyrazolo[1,5-a]pyridin-3-yl]-1H-pyrazolo[3,4-b]pyridine], the IC50 at human CSNK1D amounted to 0.011 µM; in test [1], 0.001 µM.

For the molecule `Cc1cc(-c2c(-c3ccc(F)cc3)nn3c2OCC(C)C3)c2cn[nH]c2n1` (racemic) [Example 192, (R/S)-2-(4-Fluorophenyl)-6-methyl-3-(6-methyl-1H-pyrazolo[3,4-b]pyridin-4-yl)-6,7-dihydro-5H-pyrazolo[5,1-b][1,3]oxazine], the values for the IC50 (at human CSNK1D; in test [1]) were 0.004 µM and 0.001 µM, respectively.

Regarding `[2H]C([2H])([2H])[C@]1(C([2H])([2H])F)CCc2c(-c3c(F)cnc4[nH]ncc34)c(-c3ccc(F)cn3)nn2C1` (single isomer, unassigned) [Example 295, (*S)-5-Fluoro-4-(6-(fluoromethyl-d2)-2-(5-fluoropyridin-2-yl)-6-(methyl-d5)-4,5,6,7-tetrahydropyrazolo[1,5-a]pyridin-3-yl)-1H-pyrazolo[3,4-b]pyridine], the IC50 at human CSNK1D was 0.024 µM; in test [1], 0.002 µM.

As for `CC(C)C(=O)Nc1cc(-c2c(-c3ccc(F)cn3)nn3c2COC(C)(C)C3)ccn1` [Example 132, N-(4-(2-(5-Fluoropyridin-2-yl)-6,6-dimethyl-6,7-dihydro-4H-pyrazolo[5,1-c][1,4]oxazin-3-yl)pyridin-2-yl)isobutyramide], the IC50 was found to be 0.011 µM on human CSNK1D and 0.003 µM in test [1].

On to `CC1(CF)CCc2c(-c3c(F)cnc4[nH]ncc34)c(-c3ccc(F)cn3)nn2C1` (single isomer, unassigned) [Example 293, (*S)-5-Fluoro-4-[6-(fluoromethyl)-2-(5-fluoro-2-pyridyl)-6-methyl-5,7-dihydro-4H-pyrazolo[1,5-a]pyridin-3-yl]-1H-pyrazolo[3,4-b]pyridine], for which the results for the IC50 (on human CSNK1D; in test [1]) were 0.018 µM and 0.002 µM, respectively.

On to `Fc1ccc(-c2nn3c(c2-c2ccnc4[nH]ncc24)C[C@@H]2C[C@@H]23)cc1` [Example 268, (4aS,5aS)-2-(4-Fluorophenyl)-3-(1H-pyrazolo[3,4-b]pyridin-4-yl)-4,4a,5,5a-tetrahydrocyclopropa[4,5]pyrrolo[1,2-b]pyrazole], for which the IC50 stood at 0.005 µM at human CSNK1D and 0.001 µM in test [1].

Consider `Cc1cc(-c2c(-c3ccc(F)cn3)nn3c2CO[C@@](C)(C(F)(F)F)C3)c2cn[nH]c2n1` (single isomer, unassigned) [Example 180, (*R)-2-(5-Fluoropyridin-2-yl)-6-methyl-3-(6-methyl-1H-pyrazolo[3,4-b]pyridin-4-yl)-6-(trifluoromethyl)-6,7-dihydro-4H-pyrazolo[5,1-c][1,4]oxazine], for which the IC50 at human CSNK1D amounted to 0.252 µM; in test [1] it was 0.054 µM.

For `C[C@@H]1COCc2c(-c3ccnc4[nH]ncc34)c(-c3ccc(F)cc3)nn21` (single isomer, unassigned) [Example 92, (*R)-2-(4-Fluorophenyl)-7-methyl-3-(1H-pyrazolo[3,4-b]pyridin-4-yl)-6,7-dihydro-4H-pyrazolo[5,1-c][1,4]oxazine], the IC50 at human CSNK1D stood at 0.1 µM; in test [1], 0.004 µM.

`Cc1nc(-c2c(-c3ccc(F)cc3)nn3c2CC[C@]2(C3)CC2(F)F)c2cn[nH]c2n1` (single isomer, unassigned) [Example 336, (*R)-2,2-Difluoro-2′-(4-fluorophenyl)-3′-(6-methyl-1H-pyrazolo[3,4-d]pyrimidin-4-yl)-4′,5′-dihydro-7′H-spiro[cyclopropane-1,6′-pyrazolo[1,5-a]pyridine]]: the IC50 at human CSNK1D came out at 0.009 µM; in test [1] it was 0.001 µM.

Turning to `[2H]C([2H])([2H])C1(C([2H])([2H])[2H])Cn2nc(-c3ccc(F)cn3)c(-c3c(F)cnc4[nH]ccc34)c2CO1` [Example 397, 3-(5-Fluoro-1H-pyrrolo[2,3-b]pyridin-4-yl)-2-(5-fluoropyridin-2-yl)-6,6-bis(methyl-d3)-6,7-dihydro-4H-pyrazolo[5,1-c][1,4]oxazine], the IC50 at human CSNK1D worked out at 0.011 µM; in test [1] it was 0.002 µM.

As for `Fc1ccc(-c2nn3c(c2-c2ccnc4[nH]ccc24)CCC3)nc1` [Example 6, 4-(2-(5-Fluoropyridin-2-yl)-5,6-dihydro-4H-pyrrolo[1,2-b]pyrazol-3-yl)-1H-pyrrolo[2,3-b]pyridine], the half-inhibitory concentration (IC50) at human CSNK1D was found to be 0.035 µM; in test [1] it was 0.001 µM.

With `CC1(C)Cn2nc(-c3ccc(F)cn3)c(-c3ccnc4ccsc34)c2CO1` [Example 137, 2-(5-Fluoropyridin-2-yl)-6,6-dimethyl-3-(thieno[3,2-b]pyridin-7-yl)-6,7-dihydro-4H-pyrazolo[5,1-c][1,4]oxazine], the IC50 was determined as 1.33 µM on human CSNK1D and 0.054 µM in test [1].

For the molecule `CC1CCOc2c(-c3ccn4nccc4c3)c(-c3ccc(F)cn3)nn21` (stereo not drawn) [Example 446, 2-(5-Fluoropyridin-2-yl)-7-methyl-3-(pyrazolo[1,5-a]pyridin-5-yl)-6,7-dihydro-5H-pyrazolo[5,1-b][1,3]oxazine], the 50% inhibitory concentration (IC50) at human CSNK1D worked out at 4.34 µM; in test [1] it was 0.184 µM.

On to `Cc1cc(-c2c(-c3ccc(F)cc3)nn3c2OCC2(COC2)C3)c2cn[nH]c2n1` [Example 211, 2′-(4-Fluorophenyl)-3′-(6-methyl-1H-pyrazolo[3,4-b]pyridin-4-yl)-5′H,7′H-spiro[oxetane-3,6′-pyrazolo[5,1-b][1,3]oxazine]], for which the IC50 amounted to 0.006 µM on human CSNK1D and 0.001 µM in test [1].

Molecule `CC1(CC2COC2)CCc2c(-c3ccnc4[nH]ncc34)c(-c3ccc(F)cn3)nn2C1` (single isomer, unassigned) [Example 321, (*S)-4-(2-(5-Fluoropyridin-2-yl)-6-methyl-6-(oxetan-3-ylmethyl)-4,5,6,7-tetrahydropyrazolo[1,5-a]pyridin-3-yl)-1H-pyrazolo[3,4-b]pyridine] had an IC50 on human CSNK1D of 0.037 µM.

As to `FCC1Cn2nc(-c3ccc(F)cc3)c(-c3cnc4[nH]ncc4c3)c2CO1` (stereo not drawn) [Example 103, 6-(Fluoromethyl)-2-(4-fluorophenyl)-3-(1H-pyrazolo[3,4-b]pyridin-5-yl)-6,7-dihydro-4H-pyrazolo[5,1-c][1,4]oxazine], the IC50 at human CSNK1D was found to be 0.015 µM.

In turn, `Fc1ccc(-c2nn3c(c2-c2ccnc4[nH]ncc24)COC(C(F)(F)F)C3)cc1` (stereo not drawn) [Example 99, 2-(4-Fluorophenyl)-3-(1H-pyrazolo[3,4-b]pyridin-4-yl)-6-(trifluoromethyl)-6,7-dihydro-4H-pyrazolo[5,1-c][1,4]oxazine] registered an IC50 on human CSNK1D of 0.054 µM.
